# Values of other authors as cited in patent publication US20240398817A1, “CARDIO- AND RENOSAFE ANTIDIABETIC THERAPY” (priority 2018, published 2024).
# Like-named read-outs stand apart in the source and are kept apart here.
# Columns and labels:
# Details in all cases: in vivo; cited from earlier work
# [1] = tested on: people with type 2 diabetes
# [2] = tested on: people with type 2 diabetes; remark: listed apart in the source
# [3] = tested on: people with type 2 diabetes; remark: listed apart in the source
smiles,measurement,setting,value
Cn1c(=O)cc(N2CCC[C@@H](N)C2)n(Cc2ccccc2C#N)c1=O [alogliptin],"Incidence of hospitalization for heart failure versus placebo, in words",[1],numerically increased
same,"Major adverse CV events compared with placebo, in words",[1],neutral effects
N#C[C@@H]1C[C@@H]2C[C@@H]2N1C(=O)[C@@H](N)C12CC3CC(CC(O)(C3)C1)C2 [saxagliptin],"Major adverse CV events compared with placebo, in words",[2],neutral effects
N[C@@H](CC(=O)N1CCn2c(nnc2C(F)(F)F)C1)Cc1cc(F)c(F)cc1F [sitagliptin],"Incidence of heart failure hospitalization versus placebo, in words",[3],no effect
same,"Major adverse CV events compared with placebo, in words",[3],neutral effects
